{"source": "patent EP4699605A1", "about": "“USE OF NOVEL COMPOUND FOR TREATING INTRACTABLE DISEASES” (YJ Cerapeutics Inc., priority 2023, dated 2024)", "test_system": "mTOR pathway", "test": "Signaling pathway analysis in SNI model (Western blot): mTOR", "assay_type": "in vivo, Sprague-Dawley rats", "settings": "4 weeks after nerve injury", "experimental": "To determine through which signaling pathway YJ102 inhibited a neuroinflammatory response, there was analyzed increased expression and activation of histone demethylase JMJD3 and expression changes of factors associated with JAK/STAT3 pathway, mTOR pathway, and TRPM7-mediated pathway, which were known as important regulatory mechanisms and epigenetic regulators mediating the neuroinflammatory response, in the tissues of the SNI animal model 4 weeks after nerve injury.", "data": [{"compound": "CCc1ccc(N(C(=O)COC)c2nc3cc(Cl)ccc3o2)cc1", "note": "[YJ102]", "values": [{"measurement": "activity of S6", "result": "inhibiting"}, {"measurement": "activity of p70S6kinase", "result": "inhibiting"}]}]}
